Assay results: patent publication US20220062317A1, “NA+/K+ ATPASE INHIBITORS FOR USE IN THE PREVENTION OR TREATMENT OF METASTASIS” (UNIVERSITÄT BASEL, priority 2018, published 2022)
Where “and” joins values, the source holds several entries; their conditions need not be identical. Equal entries are not always repeated.

How the values were obtained:
[1] = system: BRx50 human CTC-derived cells; assay: FDA-approved compound screen for CTC cluster dissociation (high content imaging); assay type: cell-based; conditions: even at lowest concentration tested (0.1 μM)
[2] = system: BR16 CTC cell line; assay: 17-day treatment, WGBS and i-cisTarget analysis of DMRs that gain methylation; assay type: cell-based, human; conditions: 20 nM
Procedure: (§1) In order to assess the effect of clustering on DNA methylation patterns and proliferation signature directly BR16 and BRx50 cell lines were cultured for 17 days to ensure that at least 4 divisions would take place. This is to allow proper time for DNA methylation remodeling to take place.
(§2) Under these conditions, for both CTC derived cell lines, a subset of cluster-associated hypomethylated DMRs from patient and xenografts regain ≥20% methylation.
(§3) Proteinase K digestion and bisulfite treatment was performed according to manufacturer's instructions for EZ DNA Methylation Direct Kit (Zymo, Cat #D5020). Bisulfite-treated DNA was eluted using 9 μl of Elution Buffer and used for library generation with TruSeq DNA methylation kit (Illumina, Cat #EGMK91396) according to manufacturer's instructions. For amplification, 18 cycles were performed using Failsafe Enzyme (Illumina, Cat #FSE51100) and indexes were introduced with Index Primers' Kit (Illumina, Cat #EGIDX81312). Library purification was performed using Agencourt AMPure XP beads at a ratio of 1:1 according to manufacturer's instructions. To avoid DNA loss during pipetting steps, Corning DeckWork low binding barrier pipet tips were used (Sigma, Cat #CLS4135-4X960EA). Library concentration was estimated using Qubit DS DNA HS Assay Kit according to manufacturer's instructions (Invitrogen, Cat #Q32854).
(§4) An enrichment score (ES) indicates the over- or underrepresentation of a certain object within a sample of many objects (=enrichment). […] A negative enrichment score indicates the opposite, namely that a feature is less present than to be expected by the values of other features in the sample. […] An enrichment score can be normalized by dividing a specific ES by the mean of the enrichment scores for all objects in the dataset to yield a normalized enrichment score (NES). Normalization of the enrichment score accounts for differences in gene set size and in correlations between gene sets and the expression dataset; therefore, a normalized enrichment scores (NES) can be used to compare analysis results across gene sets. Only TFBS with a NES score […] shown in the analysis.

[3] = system: BRx50 CTC cell line; assay: as above; assay type: cell-based, human; conditions: 20 nM
Procedure: as §1, §2, §3, §4

C[C@@H]1O[C@@H](O[C@H]2C[C@@H](O)[C@]3(CO)[C@H]4[C@H](O)C[C@]5(C)[C@@H](C6=CC(=O)OC6)CC[C@]5(O)[C@@H]4CC[C@]3(O)C2)[C@H](O)[C@H](O)[C@H]1O [ouabain, Ouabain]
mean cluster size [1]: significant decrease in mean cluster size | NES score of TFBS BDP1 in DMRs with ≥20% gain in methylation ([2]; 17-day treatment): 5.64 | NES score of TFBS CEBPD in DMRs with ≥20% gain in methylation ([2]; 17-day treatment): 4.05 | NES score of TFBS FOS in DMRs with ≥20% gain in methylation ([2]; 17-day treatment): 7.29 and 6.04 | NES score of TFBS FOXG1/O1 in DMRs with ≥20% gain in methylation ([2]; 17-day treatment): 3.74 and 3.39 | NES score of TFBS HMBOX1 in DMRs with ≥20% gain in methylation ([2]; 17-day treatment): 3.89 | NES score of TFBS HSF1 in DMRs with ≥20% gain in methylation ([2]; 17-day treatment): 3.71 | NES score of TFBS IRF4 in DMRs with ≥20% gain in methylation ([2]; 17-day treatment): 3.244 | NES score of TFBS IRX3 in DMRs with ≥20% gain in methylation ([2]; 17-day treatment): 3.63 | NES score of TFBS IRX6 in DMRs with ≥20% gain in methylation ([2]; 17-day treatment): 3.63 | NES score of TFBS KDM5D in DMRs with ≥20% gain in methylation ([2]; 17-day treatment): 3.11 | NES score of TFBS MEIS1 in DMRs with ≥20% gain in methylation ([2]; 17-day treatment): 3 | NES score of TFBS NANOG in DMRs with ≥20% gain in methylation ([2]; 17-day treatment): 3.349 and 3.28 | NES score of TFBS OCT4 in DMRs with ≥20% gain in methylation ([2]; 17-day treatment): 3.2 and 3.13 and 3.204 | NES score of TFBS SIX4/5 in DMRs with ≥20% gain in methylation ([2]; 17-day treatment): 6.27 and 6.16 | NES score of TFBS SOX2 in DMRs with ≥20% gain in methylation ([2]; 17-day treatment): 4.82 and 4.51 and 4.24 and 3.28 | NES score of TFBS SOX18 in DMRs with ≥20% gain in methylation ([2]; 17-day treatment): 3.2 | NES score of TFBS SRY in DMRs with ≥20% gain in methylation ([2]; 17-day treatment): 6.46 and 6.36 | NES score of TFBS TPPP in DMRs with ≥20% gain in methylation ([2]; 17-day treatment): 3.1 | NES score of TFBS YAP5 in DMRs with ≥20% gain in methylation ([2]; 17-day treatment): 3.55 and 3.08 | NES score of TFBS YY2 in DMRs with ≥20% gain in methylation ([2]; 17-day treatment): 6.5, | NES score of TFBS ZNF274 in DMRs with ≥20% gain in methylation ([2]; 17-day treatment): 4.59 and 3.01 | NES score of TFBS ZNF594 in DMRs with ≥20% gain in methylation ([2]; 17-day treatment): 4.84 | number of DMRs with ≥20% gain in methylation ([2]; 17-day treatment): n = (108) | gain of methylation in DMRs containing binding sites for stemness-related TFs ([2]; 17 days): simultaneously affecting the binding sites of OCT4, SOX2 and NANOG | NES score of TFBS BCL11A in DMRs with ≥20% gain in methylation [3]: 3.8 and 3.69 | NES score of TFBS FOS in DMRs with ≥20% gain in methylation [3]: 3.91 | NES score of TFBS FOXG1/O1 in DMRs with ≥20% gain in methylation [3]: 3.53 and 3.25 and 3.1 | NES score of TFBS HMBOX1 in DMRs with ≥20% gain in methylation [3]: 3.35 and 3.30 and 3.22 | NES score of TFBS IRX6 in DMRs with ≥20% gain in methylation [3]: 3.8 | NES score of TFBS MEIS1 in DMRs with ≥20% gain in methylation [3]: 4.09 | NES score of TFBS NANOG in DMRs with ≥20% gain in methylation [3]: 3.61 | NES score of TFBS OCT4 in DMRs with ≥20% gain in methylation [3]: 3.42 | NES score of TFBS RORA in DMRs with ≥20% gain in methylation [3]: 4.02 and 3.75 | NES score of TFBS SIX4/5 in DMRs with ≥20% gain in methylation [3]: 3.87 and 3.65 | NES score of TFBS SOX18 in DMRs with ≥20% gain in methylation [3]: 3.11 | NES score of TFBS YY2 in DMRs with ≥20% gain in methylation [3]: 3.56 | NES score of TFBS ZNF493 in DMRs with ≥20% gain in methylation [3]: 3.12 | number of DMRs with ≥20% gain in methylation [3]: (n = 121)
